As usually defined, the IC50 is the midpoint of a concentration-inhibition curve. A high value points to weaker potency in that assay.

In series [1] the test system is EU-1 (in-house cell line). In words: Cytotoxicity test of BW-AQ-365 (CCK-8) in EU-1 cells. Format: cell-based. Particulars: EU-1, 25000 cells/well, 24 h.
Series [2] can be described thus: Thiol (NAC) reactivity study by HPLC. It counts as physicochemical. Here is the method: HPLC was performed on Shimadzu LC-20AT HPLC system. Condition: mobile phase A: water with 0.05% TFA; B: acetonitrile with 0.05% TFA; gradient: 5-95% B, 0-10 min; […]; 5% B 12.1-15 min. Column: C18, 3.5 μm, 4.6×150 mm; UV detector monitored at 254 nm. For the thiol reactivity assay, a 0.3 mM solution of AQ-analogs was prepared in 0.5 mL PBS: MeOH (80:20) and warmed at 37° C. Next, 25 μL of NAC (from 30 mM stock solution in PBS) was added to the above solution. The resultant solution had final concentrations of 0.3 mM AQ-analogs and 1.5 mM NAC. 20 μL of the reaction mixture was injected into the HPLC at the designated time intervals. The area percentage values were determined via the integration of the area under the curve (AUC) of the chromatogram.

In series [3] the test system is RS4;11 cells (wild-type p53). Briefly: Cytotoxicity test of BW-AQ-365 (CCK-8) in RS4;11 cells. It counts as cell-based. Particulars: for IC50: Homo sapiens, RS4. Here is the method:
Cell viability was assessed by using Cell Counting Kit-8 (CCK-8, Dojindo, Japan). RS4;11 cells (wild-type p53) were cultured in RPMI-1640 medium (Corning, USA). The culture mediums were supplemented with 10% fetal bovine serum (Corning, USA) and 100 unit/ml penicillin, and […] streptomycin. […] Compounds were dissolved in DMSO (molecular biology grade, Sigma-Aldrich, USA) to make 10 mM stock solutions, which were serially diluted with the culture medium to various concentrations (final DMSO concentration=0.5%). A culture medium (50 μL) containing BW-AQ-365 was added directly to the cell suspension in each well immediately after seeding. After incubation for 24-72 h at 37° C. in a humidified atmosphere with 5% CO2, 10 μL of CCK-8 solution was added to each well, and the plate was incubated for an additional 2-4 h at 37° C. before measuring the optical density at 450 nm with a microplate reader (PerkinElmer Victor 2, USA). The cell viability of each well was calculated as the percentage of the untreated control according to the manufacturer's manual. All tests were performed in triplicates, and IC50 values were determined by non-linear regression using GraphPad Prism 9.0.

For series [4], the system named is MDM2 level in RS4;11 cells. In words: Preliminary study of MDM2 level in RS4;11 cells. Format: cell-based.

On to `CC(=O)CCCOc1cccc2c1C(=O)c1c(OCCCC(C)=O)cc(NC(=O)CN=[N+]=[N-])cc1C2=O` [BW-AQ-365, 2-azido-N-(9,10-dioxo-4,5-bis ((4-oxopentyl)oxy)-9,10-dihydroanthracen-2-yl)acetamide], for which the IC50 in series [1] was 1.55 ± 0.44 µM; in series [3] (RS4-11, 48 h, 11, 10000 cells/well, 48 h) it was 0.19 ± 0.01 µM; in series [3] (RS4-11, 48 h, 11, 25000 cells/well, 48 h), 0.61 ± 0.03 µM; in series [3] (RS4-11, 72 h, 11, 25000 cells/well, 72 h), 5.5 ± 0.32 µM. The “reactivity towards thiol, in words” value in series [2] is listed as “less reactivity towards thiol”. Also, the “anticancer activity in RS4;11 cells compared with BW-AQ-295” value in series [3] (RS4;11 cells) is “more potent than BW-AQ-295”. Further, in series [4], the “MDM2 level in RS4;11 cells” value is listed as “dose-dependently decrease MDM2 level”.

(Values after patent US20260257987A1, “COMPOUNDS AND METHOD FOR UPREGULATION OF P53 THROUGH INDUCTION OF MDM2 DEGRADATION” (Georgia State University Research Foundation, Inc., priority 2022, published 2026).)
